Source: patent US6864275B1, “Compounds and methods for use thereof in the treatment of cancer” (UAF Technologies and Research, LLC, priority 1997, dated 2005)

Columns and labels:
[1] = system: B16 murine melanoma; assay: MTT cell growth inhibition, B16 melanoma cells; type: cell-based; settings: 3-6 days incubation
Procedure: (§1) The following cell culture tests were performed to test the toxicity of benzimidazole derivative compounds of the present invention on colon and melanoma tumor cells. The viability of the cells were tested by looking at MTT (3-[4,5-dimethylthiazol-2-yl]-2,5-diphenyltetrazolium bromide) reduction. MTT assay is a well known measure of cell viability.
(§2) The colon tumor cells (HT29) and the melanoma cells (B16 murine melanoma) were seeded (1000-2000 cells) into each well of a 96-well microtiter plate and allowed to grow. Twenty-four hours later, increasing concentrations of each benzimidazole derivative were added to the plates and the cells were allowed to incubate for 3-6 days in the presence of the drugs. MTT reagent was then added to the wells and allowed to incubate for 4 hours at 37° C., after which the formazan metabolite was solubilized with acidic isopropanol and the absorbance was read. Experimental controls included blank wells to which no cells were added (zero point of formazan absorbance) and control wells to which no drug was added (highest level of formazan absorbance). Each drug concentration was tested in duplicate and the resulting average absorbance was plotted against drug concentration using the EZ-ED50 computer program on a personal computer interfaced to the microtiter plate reader. […] The IC50 value is then derived from this equation by EZ-ED50.

[2] = system: Tubulin; assay: Microtubule inhibition assay (tubulin polymerization, absorbance at 350 nm); type: biochemical, bovine; settings: compound at 2 μM, after 30 minutes
Procedure: The benzimidazole derivatives of this invention were evaluated for their ability to inhibit formation of microtubules, following the procedure of Luduena, R. F. and M. C. […] Microtubule polymerization was followed by performing the reaction in a cuvette and monitoring UV absorbance at 350 nm, allowing direct visualization of the time course of the polymerization.

[3] = system: B16 murine melanoma; assay: In vivo B16 murine melanoma tumor model; parameters: species or system B6D2F1 mice; settings: qd × 5; for T/C (%): mean survival treated/control; for # of Survivors: survived at least 60 days
Procedure: B6D2F1 mice received interperitoneally (i.p.) inocula of B16 murine melanoma brei prepared from B16 tumors growing s.c. in mice (Day 0). On Day 1, mice were randomized into groups, with 20 mice in the control group and 10 mice in each treated group (except there were 8 mice in selected groups given compound 3-13. Treatment with drugs or vehicle control was started on Day 1.
The mean survival times of all groups were calculated and results were expressed as mean survival of treated mice/mean survival of control mice (T/C)×100%. A “T/C” value of 150 means that the mice in the treated group lived 50% longer than those of the control group; this is sometimes referred to as the increase in life span, or ILS value.
Mice that survived for at least 60 days were considered to be long-term survivors, or cures, in the B16 model. The universally accepted cut-off for activity in this model, which has been used for years by the NCI, is T/C=125. Conventional use of B16 over the years has set the following levels of activity:
T/C>300, with long-term survivors=excellent, curative activity.

[4] = system: colon tumor cells (HT29); assay: MTT cell growth inhibition, HT29 colon tumor cells; type: cell-based; settings: 3-6 days incubation, read-out: IC50 Human Colon Carcinoma
Procedure: as §1, §2

Compound: COC(=O)Nc1nc2ccc(C(=O)OCC(C)CC(C)(C)C)cc2[nH]1 (stereo not drawn) [3-13]
- IC50 [1]: 4.6 nM
- Tubulin Polymerization Inhibition, % Inhibition [2]: 28%
- # of Toxic Deaths ([3]; 2.5 mg/kg/i.v): 0
- Weight Change (Day 12) ([3]; 2.5 mg/kg/i.v): +11.7%
- T/C (%) ([3]; 2.5 mg/kg/i.v): 92%
- # of Survivors ([3]; 2.5 mg/kg/i.v): 0
- # of Toxic Deaths ([3]; 5 mg/kg/i.v): 7
- Weight Change (Day 12) ([3]; 5 mg/kg/i.v): +3.6%
- T/C (%) ([3]; 5 mg/kg/i.v): 91%
- # of Survivors ([3]; 5 mg/kg/i.v): 0
- # of Toxic Deaths ([3]; 50 mg/kg/i.p): 0
- Weight Change (Day 12) ([3]; 50 mg/kg/i.p): +12.5%
- T/C (%) ([3]; 50 mg/kg/i.p): 94%
- # of Survivors ([3]; 50 mg/kg/i.p): 0
- # of Toxic Deaths ([3]; 100 mg/kg/i.p): 0
- Weight Change (Day 12) ([3]; 100 mg/kg/i.p): +9.8%
- T/C (%) ([3]; 100 mg/kg/i.p): 75%
- # of Survivors ([3]; 100 mg/kg/i.p): 0
- IC50 [4]: 19 nM

Compound: CCC(C)COC(=O)c1ccc2nc(NC(=O)OC)[nH]c2c1 (stereo not drawn) [3-19]
- IC50 [1]: 48 nM
- Tubulin Polymerization Inhibition, % Inhibition [2]: 28%
- # of Toxic Deaths ([3]; 20 mg/kg/i.v): 0
- Weight Change (Day 12) ([3]; 20 mg/kg/i.v): +7.8%
- T/C (%) ([3]; 20 mg/kg/i.v): 106%
- # of Survivors ([3]; 20 mg/kg/i.v): 0
- # of Toxic Deaths ([3]; 40 mg/kg/i.v): 6
- Weight Change (Day 12) ([3]; 40 mg/kg/i.v): +2.5%
- T/C (%) ([3]; 40 mg/kg/i.v): 73%
- # of Survivors ([3]; 40 mg/kg/i.v): 0
- # of Toxic Deaths ([3]; 50 mg/kg/i.p): 0
- Weight Change (Day 12) ([3]; 50 mg/kg/i.p): +9.6%
- T/C (%) ([3]; 50 mg/kg/i.p): 119%
- # of Survivors ([3]; 50 mg/kg/i.p): 0
- # of Toxic Deaths ([3]; 100 mg/kg/i.p): 0
- Weight Change (Day 12) ([3]; 100 mg/kg/i.p): +10.8%
- T/C (%) ([3]; 100 mg/kg/i.p): 124%
- # of Survivors ([3]; 100 mg/kg/i.p): 0
- IC50 [4]: 12 nM

Compound: COC(=O)Nc1nc2ccc(C(=O)OCCCCCl)cc2[nH]1 [Cpd. No. 3-1]
- IC50 [1]: 11 nM
- Tubulin Polymerization Inhibition, % Inhibition [2]: 28%
- # of Toxic Deaths ([3]; 10 mg/kg/i.v): 0
- Weight Change (Day 12) ([3]; 10 mg/kg/i.v): +9.3%
- T/C (%) ([3]; 10 mg/kg/i.v): 97%
- # of Survivors ([3]; 10 mg/kg/i.v): 0
- # of Toxic Deaths ([3]; 20 mg/kg/i.v): 0
- Weight Change (Day 12) ([3]; 20 mg/kg/i.v): +6.3%
- T/C (%) ([3]; 20 mg/kg/i.v): 98%
- # of Survivors ([3]; 20 mg/kg/i.v): 0
- # of Toxic Deaths ([3]; 50 mg/kg/i.p): 0
- Weight Change (Day 12) ([3]; 50 mg/kg/i.p): +7.5%
- antitumor activity level by NCI criteria ([3]; 50 mg/kg/i.p): weak activity (T/C=125-150, weak activity)
- T/C (%) ([3]; 50 mg/kg/i.p): 132%
- # of Toxic Deaths ([3]; 100 mg/kg/i.p): 0
- Weight Change (Day 12) ([3]; 100 mg/kg/i.p): +12.9%
- T/C (%) ([3]; 100 mg/kg/i.p): 108%
- # of Survivors ([3]; 100 mg/kg/i.p): 0
- IC50 [4]: 10 nM
